From the OligoGym collection
Several values for one entry are separate records, joined by “and”; a condition that tells them apart may be missing. Equal entries are not always repeated. HELM strings list units from the 5' end as sugar, base in round brackets, then linkage (d deoxyribose, r ribose, m 2'-O-methyl, p phosphodiester). Strings are as the collection lists them, not checked against the first reports. ss, as = sense and antisense strand; [lna] = locked nucleic acid (LNA); [una] = unlocked nucleic acid; [s4r] = 4'-thioribose; [fl2r] = 2'-fluoro

Details: siRNA
Further: test system not given here.

Question: With “RNA1{[s4r](C)p.[s4r](G)p.[s4r](U)p.[s4r](A)p.r(C)p.r(G)p.r(C)p.r(G)p.r(G)p.r(A)p.r(A)p.r(U)p.r(A)p.r(C)p.r(U)p.r(U)p.r(C)p.r(G)p.r(A)p.r(T)p.r(T)}|RNA2{[s4r](U)p.[s4r](C)p.r(G)p.r(A)p.r(A)p.r(G)p.r(U)p.r(A)p.r(U)p.r(U)p.r(C)p.r(C)p.r(G)p.r(C)p.r(G)p.r(U)p.r(A)p.[s4r](C)p.[s4r](G)p.r(T)p.r(T)}$$$RNA1{StrandType:ss}|RNA2{StrandType:as}$” as the substance, how does the target mRNA knockdown read?
Answer: 85.4%

Question: With “RNA1{r(C)p.r(G)p.r(U)p.r(A)p.r(C)p.r(G)p.r(C)p.r(G)p.r(G)p.r(A)p.r(A)p.r(U)p.r(A)p.r(C)p.r(U)p.r(U)p.r(C)p.r(G)p.r(A)p.r(T)p.r(T)}|RNA2{[s4r](U)p.[s4r](C)p.[s4r](G)p.[s4r](A)p.[s4r](A)p.[s4r](G)p.r(U)p.r(A)p.r(U)p.r(U)p.r(C)p.r(C)p.r(G)p.[s4r](C)p.[s4r](G)p.[s4r](U)p.[s4r](A)p.[s4r](C)p.[s4r](G)p.r(T)p.r(T)}$$$RNA1{StrandType:ss}|RNA2{StrandType:as}$” as the substance, how does the target mRNA knockdown read?
Answer: 22.8%

Question: Which target mRNA knockdown does the source give for “RNA1{r(G)p.r(C)p.r(U)p.r(U)p.r(U)p.r(A)p.r(A)p.r(G)p.r(G)p.r(A)p.r(A)p.r(C)p.r(U)p.r(G)p.r(G)p.r(A)p.r(A)p.r(G)p.r(G)p.r(T)p.r(T)}|RNA2{r(C)p.r(C)p.r(U)p.r(U)p.r(C)p.r(C)p.r(A)p.r(G)p.r(U)p.r(U)p.r(C)p.r(C)p.r(U)p.m(U)p.r(A)p.r(A)p.r(A)p.r(G)p.r(C)p.r(T)p.r(T)}$$$RNA1{StrandType:ss}|RNA2{StrandType:as}$” here?
Answer: 37%

Question: Which target mRNA knockdown does the source give for “RNA1{r(C)p.r(U)p.r(C)p.r(A)p.r(A)p.r(A)p.r(U)p.r(C)p.r(A)p.r(A)p.r(G)p.r(G)p.r(C)p.r(C)p.r(G)p.r(G)p.r(A)p.r(G)p.r(U)p.r(T)p.r(T)}|RNA2{r(A)p.r(C)p.r(U)p.r(C)p.r(C)p.r(G)p.r(G)p.r(C)p.r(C)p.r(U)p.m(U)p.r(G)p.r(A)p.r(U)p.r(U)p.m(U)p.r(G)p.r(A)p.r(G)p.r(T)p.r(T)}$$$RNA1{StrandType:ss}|RNA2{StrandType:as}$” here?
Answer: 85%

Question: For “RNA1{[s4r](C)p.[s4r](G)p.r(U)p.r(A)p.r(C)p.r(G)p.r(C)p.r(G)p.r(G)p.r(A)p.r(A)p.r(U)p.r(A)p.r(C)p.r(U)p.r(U)p.r(C)p.[s4r](G)p.[s4r](A)p.r(T)p.r(T)}|RNA2{r(U)p.r(C)p.r(G)p.r(A)p.r(A)p.r(G)p.r(U)p.r(A)p.r(U)p.r(U)p.r(C)p.r(C)p.r(G)p.r(C)p.r(G)p.r(U)p.r(A)p.[s4r](C)p.[s4r](G)p.r(T)p.r(T)}$$$RNA1{StrandType:ss}|RNA2{StrandType:as}$”, which target mRNA knockdown is on record?
Answer: 92.1%

Question: For “RNA1{r(G)p.r(U)p.r(A)p.r(U)p.r(G)p.r(A)p.r(C)p.r(C)p.r(G)p.r(A)p.r(C)p.r(U)p.r(A)p.r(C)p.r(G)p.r(C)p.r(G)p.r(U)p.r(A)p.r(T)p.r(T)}|RNA2{r(U)p.r(U)p.r(C)p.r(A)p.r(G)p.r(U)p.r(G)p.r(U)p.r(G)p.r(A)p.[una](U)p.r(G)p.r(A)p.r(C)p.r(A)p.r(C)p.r(U)p.r(U)p.r(G)p.r(T)p.r(T)}$$$RNA1{StrandType:ss}|RNA2{StrandType:as}$”, which target mRNA knockdown is on record?
Answer: 0%

Question: With “RNA1{[fl2r](C)p.r(U)p.[fl2r](A)p.r(G)p.[fl2r](A)p.r(G)p.[fl2r](G)p.r(A)p.[fl2r](U)p.r(C)p.[fl2r](U)p.r(U)p.[fl2r](G)p.r(A)p.[fl2r](A)p.r(G)p.[fl2r](A)p.r(C)p.[fl2r](C)p.r(T)p.r(T)}|RNA2{[fl2r](G)p.[fl2r](G)p.r(U)p.r(C)p.r(U)p.r(U)p.r(C)p.r(A)p.r(A)p.[fl2r](G)p.r(A)p.r(U)p.r(C)p.r(C)p.r(U)p.r(C)p.r(U)p.r(A)p.[fl2r](G)p.r(T)p.r(T)}$$$RNA1{StrandType:ss}|RNA2{StrandType:as}$” as the substance, how does the target mRNA knockdown read?
Answer: 38%

Question: For “RNA1{m(A)p.m(A)p.m(G)p.r(G)p.r(A)p.m(G)p.m(A)p.m(U)p.r(C)p.r(A)p.r(A)p.m(C)p.m(A)p.m(U)p.r(U)p.r(U)p.m(U)p.m(C)p.m(A)p.r(T)p.r(T)}|RNA2{m(U)p.m(G)p.m(A)p.r(A)p.r(A)p.m(A)p.m(U)p.m(G)p.r(U)p.r(U)p.r(G)p.m(A)p.m(U)p.m(C)p.r(U)p.r(C)p.m(C)p.m(U)p.m(U)p.r(T)p.r(T)}$$$RNA1{StrandType:ss}|RNA2{StrandType:as}$”, which target mRNA knockdown is on record?
Answer: 45%

Question: For “RNA1{r(A)p.r(A)p.r(G)p.r(U)p.[fl2r](A)p.r(G)p.r(U)p.r(C)p.r(C)p.r(C)p.r(C)p.r(C)p.r(U)p.r(U)p.r(G)p.r(A)p.r(A)p.r(G)p.r(A)p.r(T)p.r(T)}|RNA2{r(U)p.r(C)p.r(U)p.r(U)p.r(C)p.r(A)p.r(A)p.r(G)p.r(G)p.r(G)p.r(G)p.r(G)p.r(A)p.r(C)p.[fl2r](U)p.r(A)p.r(C)p.r(U)p.r(U)p.r(T)p.r(T)}$$$RNA1{StrandType:ss}|RNA2{StrandType:as}$”, which target mRNA knockdown is on record?
Answer: 69%

Question: For “RNA1{r(U)p.r(A)p.r(A)p.r(G)p.r(A)p.r(U)p.r(G)p.r(U)p.r(U)p.r(C)p.r(A)p.r(U)p.r(C)p.r(G)p.r(A)p.r(G)p.r(U)p.r(C)p.r(C)p.d(T)p.d(T)}|RNA2{r(G)p.r(G)p.r(A)p.r(C)p.r(U)p.r(C)p.r(G)p.r(A)p.r(U)p.r(G)p.r(A)p.r(A)p.r(C)p.r(A)p.r(U)p.r(C)p.r(U)p.r(U)p.r(A)p.d(T)p.d(T)}$$$RNA1{StrandType:ss}|RNA2{StrandType:as}$”, which target mRNA knockdown is on record?
Answer: 0%

Question: Which target mRNA knockdown does the source give for “RNA1{m(U)p.r(A)p.r(C)p.r(C)p.r(G)p.r(A)p.r(G)p.r(A)p.r(A)p.m(U)p.r(G)p.r(A)p.r(G)p.r(C)p.r(C)p.m(U)p.r(G)p.r(A)p.r(U)p.r(T)p.r(T)}|RNA2{r(A)p.r(U)p.m(C)p.r(A)p.r(G)p.r(G)p.r(C)p.r(U)p.m(C)p.r(A)p.r(U)p.r(U)p.r(C)p.r(U)p.r(C)p.r(G)p.r(G)p.m(U)p.r(A)p.r(T)p.r(T)}$$$RNA1{StrandType:ss}|RNA2{StrandType:as}$” here?
Answer: 54%

Question: Which target mRNA knockdown does the source give for “RNA1{r(G)p.r(G)p.r(A)p.r(C)p.r(A)p.r(U)p.r(U)p.r(C)p.r(A)p.r(G)p.r(A)p.r(A)p.r(C)p.r(A)p.r(A)p.r(G)p.r(A)p.r(A)p.r(A)p.[una](U)p.[una](U)}|RNA2{r(U)p.r(U)p.r(U)p.r(C)p.[una](U)p.r(U)p.r(G)p.r(U)p.r(U)p.r(C)p.r(U)p.r(G)p.r(A)p.r(A)p.r(U)p.r(G)p.r(U)p.r(C)p.r(C)p.[una](U)p.[una](U)}$$$RNA1{StrandType:ss}|RNA2{StrandType:as}$” here?
Answer: 37%

Question: Which target mRNA knockdown does the source give for “RNA1{m(U)p.r(C)p.m(U)p.r(C)p.m(G)p.r(U)p.m(A)p.r(A)p.m(G)p.r(G)p.m(A)p.r(C)p.m(G)p.r(A)p.m(A)p.r(A)p.m(C)p.r(G)p.r(A)p.r(T)p.r(T)}|RNA2{r(U)p.r(C)p.r(G)p.r(U)p.r(U)p.r(U)p.r(C)p.r(G)p.r(U)p.r(C)p.r(C)p.r(U)p.r(U)p.r(A)p.r(C)p.r(G)p.r(A)p.r(G)p.r(A)p.r(T)p.r(T)}$$$RNA1{StrandType:ss}|RNA2{StrandType:as}$” here?
Answer: 34%

Question: With “RNA1{r(C)p.r(U)p.r(U)p.r(A)p.r(C)p.r(G)p.r(C)p.r(U)p.r(G)p.r(A)p.r(G)p.r(U)p.r(A)p.r(C)p.r(U)p.r(U)p.r(C)p.r(G)p.r(A)p.r(T)p.r(T)}|RNA2{r(U)p.r(C)p.r(G)p.r(A)p.r(A)p.r(G)p.r(U)p.r(A)p.r(C)p.r(U)p.r(C)p.r(A)p.r(G)p.[lna](C)p.r(G)p.r(U)p.r(A)p.r(A)p.r(G)p.r(T)p.r(T)}$$$RNA1{StrandType:ss}|RNA2{StrandType:as}$” as the substance, how does the target mRNA knockdown read?
Answer: 43%

Question: For “RNA1{r(U)p.r(C)p.r(C)p.r(A)p.r(A)p.r(G)p.r(C)p.r(U)p.r(U)p.r(C)p.r(C)p.r(U)p.r(C)p.r(G)p.r(U)p.r(U)p.r(G)p.r(G)p.r(U)p.r(T)p.r(T)}|RNA2{r(A)p.r(C)p.[fl2r](C)p.r(A)p.r(A)p.r(C)p.r(G)p.r(A)p.r(G)p.r(G)p.r(A)p.r(A)p.r(G)p.r(C)p.r(U)p.[fl2r](U)p.r(G)p.r(G)p.r(A)p.r(T)p.r(T)}$$$RNA1{StrandType:ss}|RNA2{StrandType:as}$”, which target mRNA knockdown is on record?
Answer: 71%

Question: Which target mRNA knockdown does the source give for “RNA1{m(C)p.r(G)p.m(A)p.r(G)p.m(U)p.r(G)p.m(U)p.r(C)p.m(U)p.r(A)p.m(A)p.r(C)p.m(G)p.r(G)p.m(G)p.r(A)p.m(G)p.r(C)p.m(C)p.r(T)p.r(T)}|RNA2{r(G)p.r(G)p.r(C)p.r(U)p.r(C)p.r(C)p.r(C)p.r(G)p.r(U)p.r(U)p.r(A)p.r(G)p.r(A)p.r(C)p.r(A)p.r(C)p.r(U)p.r(C)p.r(G)p.r(T)p.r(T)}$$$RNA1{StrandType:ss}|RNA2{StrandType:as}$” here?
Answer: 25%

Question: With “RNA1{[fl2r](A)p.[fl2r](A)p.r(C)p.r(C)p.r(C)p.[fl2r](A)p.r(C)p.r(C)p.[fl2r](A)p.r(C)p.[fl2r](A)p.r(G)p.r(C)p.[fl2r](U)p.[fl2r](A)p.r(G)p.[fl2r](A)p.[fl2r](A)p.r(C)p.[fl2r](U)p.[fl2r](U)}|RNA2{r(A)p.r(A)p.r(G)p.r(U)p.r(U)p.r(C)p.r(U)p.r(A)p.r(G)p.r(C)p.r(U)p.r(G)p.r(U)p.r(G)p.r(G)p.r(U)p.r(G)p.r(G)p.r(G)p.r(U)p.r(U)}$$$RNA1{StrandType:ss}|RNA2{StrandType:as}$” as the substance, how does the target mRNA knockdown read?
Answer: 37% and 54%

Question: With “RNA1{r(G)p.r(A)p.r(C)p.r(G)p.r(U)p.r(A)p.r(A)p.r(A)p.r(C)p.r(G)p.r(G)p.r(C)p.r(C)p.r(A)p.r(C)p.r(A)p.r(A)p.r(G)p.r(U)p.r(U)p.r(C)}|RNA2{r(A)p.m(C)p.r(U)p.r(U)p.r(G)p.r(U)p.r(G)p.r(G)p.r(C)p.r(C)p.r(G)p.r(U)p.r(U)p.r(U)p.r(A)p.r(C)p.r(G)p.r(U)p.r(C)p.r(G)p.r(C)}$$$RNA1{StrandType:ss}|RNA2{StrandType:as}$” as the substance, how does the target mRNA knockdown read?
Answer: 76%

Question: For “RNA1{r(A)p.r(A)p.r(C)p.r(C)p.m(C)p.r(A)p.r(A)p.r(A)p.r(G)p.r(G)p.r(G)p.m(G)p.r(A)p.r(G)p.r(U)p.m(U)p.r(G)p.r(C)p.r(U)p.r(T)p.r(T)}|RNA2{r(A)p.r(G)p.m(C)p.r(A)p.r(A)p.r(C)p.r(U)p.r(C)p.r(C)p.r(C)p.r(C)p.r(U)p.r(U)p.m(U)p.r(G)p.r(G)p.r(G)p.r(U)p.r(U)p.r(T)p.r(T)}$$$RNA1{StrandType:ss}|RNA2{StrandType:as}$”, which target mRNA knockdown is on record?
Answer: 92%

Question: Which target mRNA knockdown does the source give for “RNA1{m(A)p.r(A)p.m(A)p.r(C)p.m(C)p.r(C)p.m(C)p.r(U)p.m(A)p.r(G)p.m(A)p.r(G)p.m(G)p.r(G)p.m(C)p.r(A)p.m(A)p.r(G)p.m(U)p.r(T)p.r(T)}|RNA2{r(A)p.r(C)p.r(U)p.r(U)p.r(G)p.r(C)p.r(C)p.r(C)p.r(U)p.r(C)p.r(U)p.r(A)p.r(G)p.r(G)p.r(G)p.r(G)p.r(U)p.r(U)p.r(U)p.r(T)p.r(T)}$$$RNA1{StrandType:ss}|RNA2{StrandType:as}$” here?
Answer: 62%
